Test results published in patent publication US20100284925A1, “Small Molecule Intervention for Obesity” (priority 2006, published 2010).

How the values were obtained:
[1] = Body weight, food intake, serum parameters and adiposity in normal C57BL/6J mice; format: in vivo
Protocol: FIG. 4. Effects of prieurianin on blood insulin, glucose and NEFA levels. Normal and ob/ob mice were treated with 5 mg/kg of prieurianin and serum samples were then collected for (FIG. 4A) insulin; (FIG. 4B) glucose; and (FIG. 4C) non-esterified fatty acid (NEFA) profiling. Results are means of three animals per group for each treatment. Blue column, normal C57BL/6J; and red column, leptin-deficient ob/ob mice.
Prieurianin was administered intraperitoneally to 12-14 week-old normal C57BL/6J mice and the genetically leptin-deficient ob/ob mice (2 or 5 mg/kg) twice a week for two weeks. Controls received equivolume injections of drug vehicle. Body weight and food intake were measured every three days, and blood samples were collected at the end of the experiment.
Obesity contributes to hypertension, high serum cholesterol, low HDL cholesterol, and hyperglycemia, thus potentially leading to higher risk of cardiovascular disease. Abdominal obesity especially correlates with metabolic risk factors. The leptin-deficient ob/ob mice are hyperlipidemic, and hyperglycemic. To test whether prieurianin altered the metabolic or endocrinological parameters in addition to appetite, the serum lipid profile, insulin and glucose levels were measured.
To further examine the effects of prieurianin on the adiposity of the normal C57BL/6J and the ob/ob mice, we measured their visceral and subcutaneous body fat.

[2] = format: in vivo, mice
Protocol: FIG. 15B. Genetically diabetic Ceacam^−/− knockout mice were fed high fat diet for fattening for 4 weeks followed by daily prieurianin treatment (3 or 5 mg/kg) for 21 days. Vehicle treated db/db and Ceacam^−/− mice were given equivolume of Captisol. Results are the means S.E. of 10 animals per group.
The effects of prieurianin were tested in three additional mouse models of obesity including the genetically hyperinsulinemic leptin-receptor deficient db/db, the Ceacam−/− glucose intolerant/diabetic, and the diet-induced obese mice. Prieurianin was administered intraperitoneally (i.p.) to 12-14 week-old db/db mice daily (3 or 5 mg/kg) for 30 days. The diet-induced obese Ceacam−/− diabetic mice were fed a high fat diet for 4 weeks for fattening, followed by prieurianin treatment (3 or 5 mg/kg) for 3 weeks. Vehicle treated controls received equivolume injections of Captisol (CyDex Inc., Lenexa, Kans.). Body weight and food intake were measured every three days, and blood samples were collected at the end of the experiment.

NIH-3T3/L1 preadipocytes [3] = assay: Proliferation of NIH-3T3/L1 preadipocytes (daily cell counting); format: cell-based
Protocol: FIG. 6. Inhibition of NIH-3T3/L1 preadipocytes proliferation by prieurianin. Cells were treated with various concentrations (0.5, 1, and 2 μM) of prieurianin and growth was assessed by counting daily for 7 days. Results are means±S.E. of triplicate experiments.

NIH-3T3/L1 preadipocytes [4] = assay: Differentiation of NIH-3T3/L1 preadipocytes into adipocytes (oil red O or Nile Red staining); format: cell-based
Protocol: FIG. 7. […] NIH-3T3/L1 cells were induced into differentiation and simultaneously treated with 2 μM of prieurianin. Differentiated cells were stained with oil red O—FIG. 7A, undifferentiated control.
Histogram represents A510 nm absorbance of oil red O stain isopropanol extracts from cells. Results are means±S.E. of triplicate experiments.
FIG. 19. Effects of bufalin on preadipocyte differentiation, and dedifferentiation/delipidation in adipo-cytes. NIH-3T3/L1 cells were induced into differentiation and simultaneously treated with either 1 μM of bufalin or 2 μM of prieurianin. Differentiated cells were stained with Nile Red. Alternatively, preadipocytes were induced into differentiation and five days following differentiation, cells were treated with either 1 μM of bufalin or 2 μM of prieurianin for an additional five days and followed by staining with Nile Red. Stained cells were evaluated by fluorescence microscopy.
To determine the effects of prieurianin on the differentiation of preadipocytes to adipocytes, the NIH-3T3/L1 preadipocytes were treated with or without the drug at the same time when induction of differentiation was initiated.

NIH-3T3/L1 preadipocytes [5] = format: cell-based; conditions: 2 μM
Protocol: FIG. 7D. Flow cytometric analysis of annexin V binding to phosphatidylserine, apoptotic cells are on the upper right quadrant. All experiments were conducted in triplicate.

adiponectin = assay: Adiponectin release into conditioned media (Western blot); format: cell-based
Protocol: (§1) FIG. 10. Release of adiponectin and PLTP by preadipocytes and adipocytes, and in serum of normal mice. Preadipocytes (B and D) were treated with 2 μM of prieurianin and media collected after 36 hrs for Western blot analysis of either adiponectin (A and B) or PLTP (C and D). Alternatively, five days following differentiation, conditioned media of adipocyets (A and C) were collected for Western analysis. E. Serum of normal C57BL/6J mice given prieurianin or topotecan (0, 2, 5, and 10 mg/kg) was analyzed by Western blot for PLTP.
Adipose tissue contains various types of cells including preadipocytes and adipocytes. Also, preadipocytes secrete factors involved in their own differentiation. Once differentiated, the mature adipocytes acquire the ability to communicate distally with other organs including brain, liver, and skeletal muscle and locally with other cells such as preadipocytes, endothelial cells and monocytes/macrophages by secreting leptin and adiponectin. In addition, anti-adipogenic cytokines prevent the release of adiponectin by preadipocytes. Thus, the production of adiponectin and PLTP by preadipocytes and adipocytes was assessed.

PLTP = PLTP release into conditioned media (Western blot); format: cell-based
Protocol: as §1
The expression and secretion of PLTP by preadipocytes and adipocytes was also assessed. Thus, preadipocytes produced and released both the low and the high molecular weight forms of PLTP, while adipocytes secreted only the low molecular weight form (see FIGS. 10C and 10D) into the conditioned media.

NFκB = assay: NFκB-response element luciferase reporter in L1 preadipocytes; format: cell-based; conditions: prieurianin 2 μM
C/EBPα = C/EBPα response element luciferase reporter in L1 preadipocytes; format: cell-based; conditions: prieurianin 2 μM
Protocol: (§2) FIG. 18. Effects of prieurianin on C/EBPα and β and PPARγ mediated transcription in adipogenesis. Response elements corresponding to C/EBPα and β and PPARγ are cloned into the pGL3 basic luciferase reporter plasmid. L1 preadipocytes were contransfected with the reporter plasmid either in the presence or the absence of the corresponding transcription factors cloned into expression vector, followed by treatment with 2 μM of prieurianin. Cells were harvested for luciferase assay 15-24 hrs later. Results are means±S.E. of triplicate experiments.

PPARγ = PPARγ response element luciferase reporter in L1 preadipocytes; format: cell-based; conditions: prieurianin 2 μM
Protocol: as §2

## C=C1[C@@H]([C@@]2(C)[C@@H](OC(C)=O)CC(=O)O[C@](C)(COC(C)=O)[C@@H]2C(=O)OC)[C@@H](OC=O)[C@H](OC(=O)[C@H](O)[C@H](C)CC)[C@@]2(C)[C@H](c3ccoc3)CC(=O)[C@]12O [prieurianin]
[1]; normal C57BL/6J mice
  food intake: reduced food intake
  glucose levels: did not alter the insulin or the glucose levels significantly
  insulin levels: did not alter the insulin or the glucose levels significantly
  serum PLTP activity: increase in serum PLTP activity
[1]; normal C57BL/6J mice, 2 or 5 mg/kg i.p. twice a week, two weeks
  body weight: modest body weight loss
[1]; normal C57BL/6J mice, any dose
  percent body fat: not significantly altered
[1]; normal mice
  NEFA levels: decrease in NEFA levels
  leptin levels: decrease in leptin levels
[1]; normal mice, serum
  HDL levels: remained relatively unchanged
  total cholesterol level: remained relatively unchanged
  triglyceride levels: no significant changes
[2]; 3 mg/kg treated group
  body weight relative to pre-fattening: Body weight returned to pre-fattening level
[2]; Ceacam−/− mice given 5 mg/kg
  toxicity: euthanized after 14 days of treatment due to severe weight loss and unknown toxicity
[2]; Ceacam−/− mice given 5 mg/kg, relative to controls
  subcutaneous or visceral fats in postmortem analysis: Little subcutaneous or visceral fats were observed
[2]; diet-induced obese Ceacam−/− mice, 3 or 5 mg/kg
  body weight loss: 20-26%
[2]; diet-induced obese Ceacam−/− mice, compared to controls
  reduced food intake: > 50%
NIH-3T3/L1 preadipocytes [3]; 0.5, 1 and 2 μM, 7 days
  proliferation of preadipocytes: inhibited the proliferation of the NIH-3T3/L1 preadipocytes in a dose-dependent manner
NIH-3T3/L1 preadipocytes [3]; Mus musculus, NIH3T3, 168 h, 2 μM, day 7
  inhibition at 2 µM: 50%
NIH-3T3/L1 preadipocytes [4]; 2 μM, in the absence of staurosporine
  preadipocytes differentiation: almost completely inhibited preadipocytes differentiation
NIH-3T3/L1 preadipocytes [4]; treated at induction of differentiation, oil red O
  differentiation of preadipocytes into lipid accumulating adipocytes: dose-dependently prevented the differentiation of preadipocytes
NIH-3T3/L1 preadipocytes [5]
  apoptosis (annexin V binding to phosphatidylserine): did not differentially induce apoptosis
adiponectin; NIH-3T3/L1 preadipocytes, approximately 36 hrs after treatment
  adiponectin release by preadipocytes: inhibition of adiponectin release
adiponectin; differentiated adipocytes
  adiponectin production and release in differentiated adipocytes: induced the production and release of high molecular weight form, as well as a modest increase in the secretion of total adiponectin
PLTP; adipocytes
  release of PLTP by adipocytes: induced an increase in the release of only the low molecular weight form of PLTP
PLTP; preadipocytes
  release of PLTP by preadipocytes: release of the low but not the high molecular form of PLTP was reduced
NFκB
  NFκB-response element mediated transcription: induces transactivation from the NFκB-response element mediated transcription
C/EBPα
  transactivation potential of C/EBPα: inhibits the transactivation potential
PPARγ
  transactivation potential of PPARγ: inhibits the transactivation potential
